Series [1] in a line: Compound cytotoxicity assay (WST-1) in HCT-8 cells. The format is cell-based, human. As to conditions: human; HCT-8 cells, 24 h, WST-1. Here is the method: Compound cytotoxicity assay. […] A colorimetric assay using the cell proliferation reagent WST-1 (Roche, USA) for the quantification of cell viability was performed. […] When the cells were confluent, the old medium was replaced with fresh medium with or without varying concentrations of chemical compound. After 24 h of culture, 10 μl of the cell proliferation reagent WST-1, (for quantification of cell viability) was added to each well, mixed and the plates incubated for 1 h at 37 C with 5% CO2 in the dark. […] Molecular Devices, USA).
In general terms: Formazan colour is commonly taken as a measure of viable cells.

A further series deals with Cryptosporidium parvum. Put plainly: In vitro anti-Cryptosporidium effect in HCT-8 cells (immunofluorescence assay). It counts as cell-based. As to conditions: HCT-8 cells; for IC50: Cryptosporidium parvum. The method, then: In vitro testing of the anti-Cryptosporidium effect of CpLDH inhibitors. HCT-8 cells were cultured in supplemented RPMI-1640 medium in 96-well plates. When the cells were confluent, old medium was replaced with fresh medium. To one set of wells, varying concentrations of recombinant CpLDH inhibitors (reconstituted in DMSO and diluted in RPMI medium) were added, while another set was left without inhibitors. Paromomycin was used as a positive control drug reconstituted in distilled sterile water. Then, 4×10^4 freshly excysted sporozoites were added to each well and incubated at 37° C. with 5% CO2. After 2 h incubation, varying concentrations of CpLDH inhibitors were added to the set of infected cells that were not treated initially. Control infected cells without inhibitors, but with added DMSO volumes equivalent to those used in the wells with inhibitors, were included. The cells were maintained in culture for a total of either 48 h or 72 h and processed for immunofluorescence assay as previously described (Int. J. Parasitol. 2017; 47(13), 867-874). Briefly, medium was decanted, and the cells fixed with methanol-acetic acid (9:1) for 2 minutes at room temperature. The cells were rehydrated and permeabilized by two successive washes with buffer (0.1% Triton X-100, 0.35 M NaCl, 0.13 M Tris-base, pH 7.6) and blocked with 5% normal goat serum, followed by staining with antibody to C. parvum (SporoGlo; Waterborn, Inc.) overnight at 4° C. The stained cells were washed twice with PBS, followed by water, and then imaged with an inverted fluorescence microscope. Fluorescence quantification was done using ImageJ version 1.37v software (NIH). Assays were performed in triplicate and repeated at least thrice.

Another series can be described thus: Tolerability in mice. The format is in vivo. To be noted: daily oral gavage for 7 days, mice. The method, then:
In vivo testing of the anti-Cryptosporidium effect of CpLDH inhibitors. Gamma interferon knockout mice (B6.129S7-Ifng), 8 weeks of age, were purchased from Charles River, USA. The care and use of the mice was done following the guidelines of protocol number 17024 approved by the University of Illinois at Urbana-Champaign, USA. The animals were allowed to acclimatize for 1 week before experiments commenced. Stock solutions of recombinant CpLDH inhibitors reconstituted in DMSO were diluted in sterile distilled water to reduce the final amount of DMSO in the solution to less than 1% (v/v) before administering them to mice. Prior to testing the anti-Cryptosporidium effect of the inhibitors in mice, the tolerability of each inhibitor was tested by oral gavage using varying dosages (100-2000 mg/kg body weight) of each inhibitor in groups of mice (three mice for each dose) daily for 7 days. Mice were observed daily for signs of toxicity including changes from normal physical activity, respiration, body temperature, feeding, posture, fur condition or occurrence of death. […] An equivalent volume of PBS containing a cocktail of penicillin (100 units/ml), streptomycin (100 μg/ml), chloramphenicol (34 μg/ml) and amphotericin (0.25 μg/ml) was added to the fecal samples and stored at 4° C. until use for quantification of C. parvum genomic DNA load. […]

The test system of series [2] is C. parvum. Put plainly: Real-time PCR quantification of C. parvum DNA in fecal samples of infected mice. The format is in vivo, Cryptosporidium parvum. The method, then:
In vivo testing of the anti-Cryptosporidium effect of CpLDH inhibitors. Gamma interferon knockout mice (B6.129S7-Ifng), 8 weeks of age, were purchased from Charles River, USA. The care and use of the mice was done following the guidelines of protocol number 17024 approved by the University of Illinois at Urbana-Champaign, USA. The animals were allowed to acclimatize for 1 week before experiments commenced. Stock solutions of recombinant CpLDH inhibitors reconstituted in DMSO were diluted in sterile distilled water to reduce the final amount of DMSO in the solution to less than 1% (v/v) before administering them to mice. Prior to testing the anti-Cryptosporidium effect of the inhibitors in mice, the tolerability of each inhibitor was tested by oral gavage using varying dosages (100-2000 mg/kg body weight) of each inhibitor in groups of mice (three mice for each dose) daily for 7 days. Mice were observed daily for signs of toxicity including changes from normal physical activity, respiration, body temperature, feeding, posture, fur condition or occurrence of death. […] The subsequent dosages of NSC10447 used in the mice infection assays were 250, 500 and 1000 mg/kg mouse body weight, while the NSC158011 dosages used were 100, 200 and 400 mg/kg mouse body weight. Mice were allocated to groups as follows: “Infected plus inhibitor treatment”; “Infected minus inhibitor treatment”; “Uninfected minus inhibitor treatment” and “Infected plus paromomycin treatment”. Each group contained at least three mice. Each mouse in the infection groups received 5,000 C. parvum oocysts (resuspended in 50 μl of PBS) by oral gavage. Mice were housed individually in cages lined with sterile gauze as bedding. One day post-infection (PI), daily oral gavage administration of recombinant CpLDH inhibitor or paromomycin commenced and continued for a total of 7 days. Untreated mice received an equivalent volume of sterile distilled water (containing DMSO equivalent to the amount administered in the inhibitor-treated group) by oral gavage. Fecal pellets were collected daily from each cage and placed in individual sterile 15 ml conical tubes. An equivalent volume of PBS containing a cocktail of penicillin (100 units/ml), streptomycin (100 μg/ml), chloramphenicol (34 μg/ml) and amphotericin (0.25 μg/ml) was added to the fecal samples and stored at 4° C. until use for quantification of C. parvum genomic DNA load. Three independent replicate infection assays were performed. At 9 days PI, mice were euthanized and 5 cm of the distal small intestine resected 2 cm anterior to the cecum and immediately submerged in 4% buffered formalin. The intestinal tissues were submitted for histopathology to the Veterinary Diagnostic Laboratory at the University of Illinois at Urbana-Champaign. Briefly, intestinal tissues preserved in 4% buffered formalin were washed in 70% ethanol and embedded in 1% agar and then processed for paraffin embedding. For hematoxylin and eosin staining, five μm transverse and cross sections were cut and processed and stained following standard procedures of the Veterinary Diagnostic Laboratory. Sections were imaged using a Zeiss microscope and images captured with a color camera.
Quantification of C. parvum shed in mice feces. Genomic DNA was extracted from individual fecal samples collected from mice at different days as described above. For each sample, 220 mg of homogenized feces were used to extract genomic DNA using the QIAamp PowerFecal DNA Kit (Qiagen, USA) following the manufacturer's instructions. Quantification of the amount of C. parvum 18s rRNA gene (GenBank accession number AF164102) was performed essentially as described previously (Int. J. Parasitol. 2018; 48(8), 649-656). Briefly, primers were used to generate a 240 bp amplicon from C. parvum genomic DNA by conventional PCR. […]

Series [3] concerns C. parvum. In words: Histopathology of distal small intestine of C. parvum infected mice. The format is in vivo, Cryptosporidium parvum. As to conditions: lower small intestine, H&E, NSC158011 400 mg/kg, NSC10447 250, 500 or 1000 mg/kg, paromomycin 100 mg/kg. Here is the method:
In vivo testing of the anti-Cryptosporidium effect of CpLDH inhibitors. Gamma interferon knockout mice (B6.129S7-Ifng), 8 weeks of age, were purchased from Charles River, USA. The care and use of the mice was done following the guidelines of protocol number 17024 approved by the University of Illinois at Urbana-Champaign, USA. The animals were allowed to acclimatize for 1 week before experiments commenced. Stock solutions of recombinant CpLDH inhibitors reconstituted in DMSO were diluted in sterile distilled water to reduce the final amount of DMSO in the solution to less than 1% (v/v) before administering them to mice. Prior to testing the anti-Cryptosporidium effect of the inhibitors in mice, the tolerability of each inhibitor was tested by oral gavage using varying dosages (100-2000 mg/kg body weight) of each inhibitor in groups of mice (three mice for each dose) daily for 7 days. Mice were observed daily for signs of toxicity including changes from normal physical activity, respiration, body temperature, feeding, posture, fur condition or occurrence of death. […] The subsequent dosages of NSC10447 used in the mice infection assays were 250, 500 and 1000 mg/kg mouse body weight, while the NSC158011 dosages used were 100, 200 and 400 mg/kg mouse body weight. Mice were allocated to groups as follows: “Infected plus inhibitor treatment”; “Infected minus inhibitor treatment”; “Uninfected minus inhibitor treatment” and “Infected plus paromomycin treatment”. Each group contained at least three mice. Each mouse in the infection groups received 5,000 C. parvum oocysts (resuspended in 50 μl of PBS) by oral gavage. Mice were housed individually in cages lined with sterile gauze as bedding. […] An equivalent volume of PBS containing a cocktail of penicillin (100 units/ml), streptomycin (100 μg/ml), chloramphenicol (34 μg/ml) and amphotericin (0.25 μg/ml) was added to the fecal samples and stored at 4° C. until use for quantification of C. parvum genomic DNA load. […]

Series [4] has as its target T1, Plasmodium falciparum phosphoethanolamine methyltransferase enzyme (Plasmodium falciparum, UniProt Q8IDQ9).
T1 sequence (Q8IDQ9 1-266): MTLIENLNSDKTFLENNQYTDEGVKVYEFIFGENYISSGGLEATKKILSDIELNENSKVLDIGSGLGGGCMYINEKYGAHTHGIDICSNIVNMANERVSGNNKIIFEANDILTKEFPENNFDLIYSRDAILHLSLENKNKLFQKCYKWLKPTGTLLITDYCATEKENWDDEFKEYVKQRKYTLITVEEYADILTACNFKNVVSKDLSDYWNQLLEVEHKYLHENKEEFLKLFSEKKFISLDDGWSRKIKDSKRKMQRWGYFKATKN
As to conditions: previously shown; cited from earlier work.

The next series concerns Plasmodium falciparum. To be noted: previously shown; cited from earlier work.

“Also recorded” adds a separate entry of the source. Like-named read-outs stand apart in the source and are kept apart here.

Broadly, the IC50 is the concentration that inhibits the measured activity by half.

In series [1], `S=C(CSc1ccccc1)Nc1cccc2ccccc12` [NSC158011] came in with an IC50 at 24 h of 149 µM. In the series with Cryptosporidium parvum (48 h post-infection, 40 μM), the “effect on parasite growth at 40 μM” value is recorded as “blocking parasite growth almost completely”. The IC50 in the series with Cryptosporidium parvum (48 h, compound added at the time of infection, read-out: IC50, inhibition of C. parvum growth at 48 h p.i.) came out at 14.9 µM; in the series with Cryptosporidium parvum (72 h, compound added at the time of infection, read-out: IC50, inhibition of C. parvum growth at 72 h p.i.), 15.6 µM; in the series with Cryptosporidium parvum (compound added 2 h post-infection, read-out: IC50, inhibition of C. parvum growth at 48 h p.i. (2 h)), 15.8 µM; with Cryptosporidium parvum (compound added 2 h post-infection, read-out: IC50, inhibition of C. parvum growth at 72 h p.i. (2 h)), 16.5 µM. Further, the “highest tolerable dose (no toxicity signs)” value in “Tolerability in mice” was 400 mg/kg. Also, the “efficacy lower than paromomycin” value in the series with C. parvum [2] (NSC158011 200 mg/kg, last three days of treatment) is reported as “about 10 fold”. Also, in the series on C. parvum [2] (NSC158011 400 mg/kg), the “shedding of C. parvum oocysts in mice feces” value was “significantly (P<. 0.05) reduced”. In the series on C. parvum [2] (NSC158011 400 mg/kg, day 7 post-infection), the “reduction of shedding of C. parvum in mice feces vs untreated infected mice” value was “about 3000 fold”. Also, in the series on C. parvum [3], the “histopathology of intestinal epithelium and villi” value is “maintained intact intestinal mucosa and villi; also recorded: intact intestinal epithelium with prominent villi”. Also, in series [4], the “inhibition of catalytic activity of P. falciparum phosphoethanolamine methyltransferase” value is “inhibit the catalytic activity”. In the series on Plasmodium falciparum, the “inhibition of in vitro intracellular growth of P. falciparum” value is “inhibit in vitro intracellular growth of the parasite”.

The values above are taken from patent US20250387359A1, “COMPOUNDS AND METHODS FOR THE TREATMENT OF PARASITIC INFECTIONS” (THE BOARD OF TRUSTEES OF THE UNIVERSITY OF ILLINOIS, priority 2019, published 2025).
